Test results: US9902702B2, “Spirocycloheptanes as inhibitors of rock” (BRISTOL-MYERS SQUIBB COMPANY, priority 2014, dated 2018)

Target: ROCK2 (Homo sapiens, UniProt O75116)
Assay: ROCK assay: phosphorylation of FITC peptide substrate, LABCHIP 3000 mobility shift
Format: biochemical
Details: 5 μM ATP, 1.5 μM peptide substrate; read-out: ROCK2 Activity (ROCK IC50 range)
Outline: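 IC50 values come from curve-fitting percent kinase inhibition across a compound dilution series. The reaction is started with Rho kinase variant in HEPES pH 7.5 buffer with MgCl2, Brij-35 and DTT, with 5 μM ATP, 1.5 μM FITC-labelled peptide and under 2% DMSO. After EDTA quench, product and substrate are separated by microfluidic mobility shift.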

ROCK2, sequence (O75116 whole entry, species assumed): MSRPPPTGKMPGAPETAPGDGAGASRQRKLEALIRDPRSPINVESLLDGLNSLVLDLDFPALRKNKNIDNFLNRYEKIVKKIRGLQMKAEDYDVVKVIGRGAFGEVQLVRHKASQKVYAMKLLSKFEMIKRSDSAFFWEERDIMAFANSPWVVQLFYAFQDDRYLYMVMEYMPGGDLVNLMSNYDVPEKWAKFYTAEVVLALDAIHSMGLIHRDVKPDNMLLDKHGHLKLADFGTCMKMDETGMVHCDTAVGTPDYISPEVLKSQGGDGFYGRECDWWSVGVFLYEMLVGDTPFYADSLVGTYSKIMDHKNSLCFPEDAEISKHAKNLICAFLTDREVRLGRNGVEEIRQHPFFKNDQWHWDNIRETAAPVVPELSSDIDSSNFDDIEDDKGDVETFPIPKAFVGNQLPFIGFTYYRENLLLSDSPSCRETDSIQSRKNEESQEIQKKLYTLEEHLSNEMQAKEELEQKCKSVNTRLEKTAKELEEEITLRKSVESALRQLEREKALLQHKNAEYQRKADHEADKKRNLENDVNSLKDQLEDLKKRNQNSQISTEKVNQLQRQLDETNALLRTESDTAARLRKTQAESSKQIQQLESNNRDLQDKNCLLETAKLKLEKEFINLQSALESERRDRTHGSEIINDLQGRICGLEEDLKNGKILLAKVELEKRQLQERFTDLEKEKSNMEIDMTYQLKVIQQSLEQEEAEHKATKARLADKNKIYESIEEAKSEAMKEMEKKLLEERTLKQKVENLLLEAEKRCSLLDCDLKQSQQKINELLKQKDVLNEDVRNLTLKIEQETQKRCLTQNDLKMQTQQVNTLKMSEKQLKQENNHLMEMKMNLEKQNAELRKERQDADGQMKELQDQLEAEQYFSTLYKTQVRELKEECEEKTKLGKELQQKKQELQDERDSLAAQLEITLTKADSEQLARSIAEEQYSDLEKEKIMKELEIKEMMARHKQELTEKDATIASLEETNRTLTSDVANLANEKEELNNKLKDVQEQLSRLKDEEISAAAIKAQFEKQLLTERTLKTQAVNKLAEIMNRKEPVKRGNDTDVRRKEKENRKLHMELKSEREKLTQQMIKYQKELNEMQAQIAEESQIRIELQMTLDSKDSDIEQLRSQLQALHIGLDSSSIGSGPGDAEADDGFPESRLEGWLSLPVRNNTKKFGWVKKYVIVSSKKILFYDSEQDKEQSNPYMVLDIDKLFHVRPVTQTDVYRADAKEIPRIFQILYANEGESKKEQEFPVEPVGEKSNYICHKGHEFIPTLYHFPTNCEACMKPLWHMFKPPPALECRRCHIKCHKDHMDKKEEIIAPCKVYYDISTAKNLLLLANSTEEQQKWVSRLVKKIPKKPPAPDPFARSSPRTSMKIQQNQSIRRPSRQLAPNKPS

First: [H][C@]1(c2n[nH]c(=O)c3ccccc32)C[C@]2(C[C@@H](NC(=O)c3cnc4cc(C#N)ccn34)C2)C1 (stereo partly drawn) [Example 379, 7-cyano-N-((aR)-6-(4-oxo-3,4-dihydrophthalazin-1-yl)spiro[3.3]heptan-2-yl)imidazo[1,2-a]pyridine-3-carboxamide]
Second: [H][C@]1(c2n[nH]c(=O)c3ccccc32)C[C@]2(C[C@@H](NC(=O)c3cnc4cc(F)ccn34)C2)C1 (stereo partly drawn) [Example 387, 7-fluoro-N-((aR)-6-(4-oxo-3,4-dihydrophthalazin-1-yl)spiro[3.3]heptan-2-yl)imidazo[1,2-a]pyridine-3-carboxamide]
The IC50 of the first is higher: 5.1 to 15 nM for the first, 2.01 to 5 nM for the second.

First: [H][C@]1(c2n[nH]c(=O)c3ccccc32)C[C@]2(C[C@@H](NC(=O)c3cnc4c(C#N)cccn34)C2)C1 (stereo partly drawn) [Example 380, 8-cyano-N-((aR)-6-(4-oxo-3,4-dihydrophthalazin-1-yl)spiro[3.3]heptan-2-yl)imidazo[1,2-a]pyridine-3-carboxamide]
Second: [H][C@]1(c2n[nH]c(=O)c3ccccc32)C[C@]2(C[C@@H](NC(=O)c3cnc4c(Cl)cccn34)C2)C1 (stereo partly drawn) [Example 382, 8-chloro-N-((aR)-6-(4-oxo-3,4-dihydrophthalazin-1-yl)spiro[3.3]heptan-2-yl)imidazo[1,2-a]pyridine-3-carboxamide]
The IC50 of the first is higher: 5.1 to 15 nM for the first, 2.01 to 5 nM for the second. The second is the more potent here.

`[H][C@]1(c2n[nH]c(=O)c3ccccc32)C[C@]2(C[C@@H](NC(=O)c3cnc4c(C(F)(F)F)cccn34)C2)C1` (stereo partly drawn) [Example 381, N-((aR)-6-(4-oxo-3,4-dihydrophthalazin-1-yl)spiro[3.3]heptan-2-yl)-8-(trifluoro-methyl)imidazo[1,2-a]pyridine-3-carboxamide] and `[H][C@]1(c2n[nH]c(=O)c3ccccc32)C[C@]2(C[C@@H](NC(=O)c3cnc4cc(C(F)(F)F)ccn34)C2)C1` (stereo partly drawn) [Example 403, N-((aR)-6-(4-oxo-3,4-dihydrophthalazin-1-yl)spiro[3.3]heptan-2-yl)-7-(trifluoromethyl)imidazo[1,2-a]pyridine-3-carboxamide] fall in the same range of IC50: 2.01 to 5 nM for the first, 2.01 to 5 nM for the second.

`[H][C@]1(c2n[nH]c(=O)c3ccccc32)C[C@]2(C[C@@H](NC(=O)c3cnc4cc(-c5ccccc5)ccn34)C2)C1` (stereo partly drawn) [Example 383, N-((aR)-6-(4-oxo-3,4-dihydrophthalazin-1-yl)spiro[3.3]heptan-2-yl)-7-phenylimidazo[1,2-a]pyridine-3-carboxamide] and `[H][C@]1(c2n[nH]c(=O)c3ccccc32)C[C@]2(C[C@@H](NC(=O)c3cnc4cc(OCc5ccccc5)ccn34)C2)C1` (stereo partly drawn) [Example 384, 7-(benzyloxy)-N-((aR)-6-(4-oxo-3,4-dihydrophthalazin-1-yl)spiro[3.3]heptan-2-yl)imidazo[1,2-a]pyridine-3-carboxamide] fall in the same range of IC50: 0.2 to 2 nM for the first, 0.2 to 2 nM for the second.

`[H][C@]1(c2n[nH]c(=O)c3ccccc32)C[C@]2(C[C@@H](NC(=O)c3cnc4cc(OC)ccn34)C2)C1` (stereo partly drawn) [Example 385, 7-methoxy-N-((aR)-6-(4-oxo-3,4-dihydrophthalazin-1-yl)spiro[3.3]heptan-2-yl)imidazo[1,2-a]pyridine-3-carboxamide] and `[H][C@]1(c2n[nH]c(=O)c3ccccc32)C[C@]2(C[C@@H](NC(=O)c3cnc4cc(OCC(C)(C)O)ccn34)C2)C1` (stereo partly drawn) [Example 400, 7-(2-hydroxy-2-methylpropoxy)-N-((aR)-6-(4-oxo-3,4-dihydrophthalazin-1-yl)spiro[3.3]heptan-2-yl)imidazo[1,2-a]pyridine-3-carboxamide] fall in the same range of IC50: 0.2 to 2 nM for the first, 0.2 to 2 nM for the second.

First: [H][C@]1(c2n[nH]c(=O)c3ccccc32)C[C@]2(C[C@@H](NC(=O)c3cnc4c(Cl)c(C)ccn34)C2)C1 (stereo partly drawn) [Example 386, 8-chloro-7-methyl-N-((aR)-6-(4-oxo-3,4-dihydro-phthalazin-1-yl)spiro[3.3]heptan-2-yl)imidazo[1,2-a]pyridine-3-carboxamide]
Second: [H][C@]1(c2n[nH]c(=O)c3ccccc32)C[C@]2(C[C@@H](NC(=O)c3cnc4c(C)cc(F)cn34)C2)C1 (stereo partly drawn) [Example 405, 6-fluoro-8-methyl-N-((aR)-6-(4-oxo-3,4-dihydrophthalazin-1-yl)spiro[3.3]heptan-2-yl)imidazo[1,2-a]pyridine-3-carboxamide]
The IC50 of the first is higher: 2.01 to 5 nM for the first, 0.2 to 2 nM for the second. The second is the more potent here.

`[H][C@]1(c2n[nH]c(=O)c3ccccc32)C[C@]2(C[C@@H](NC(=O)c3nc(C(C)C)n4c3CCCC4)C2)C1` (stereo partly drawn) [Example 388, 3-isopropyl-N-((aR)-6-(4-oxo-3,4-dihydrophthalazin-1-yl)spiro[3.3]heptan-2-yl)-5,6,7,8-tetrahydro-imidazo[1,5-a]pyridine-1-carboxamide] and `[H][C@]1(c2n[nH]c(=O)c3ccccc32)C[C@]2(C[C@@H](NC(=O)c3cnc4cc(OCCN5CCCC5)ccn34)C2)C1` (stereo partly drawn) [Example 401, N-((aR)-6-(4-oxo-3,4-dihydrophthalazin-1-yl)spiro[3.3]heptan-2-yl)-7-(2-(pyrrolidin-1-yl)ethoxy)imidazo[1,2-a]pyridine-3-carboxamide] fall in the same range of IC50: 2.01 to 5 nM for the first, 2.01 to 5 nM for the second.

`[H][C@]1(c2n[nH]c(=O)c3ccccc32)C[C@]2(C[C@@H](NC(=O)c3nnc4ccccn34)C2)C1` (stereo partly drawn) [Example 389, N-((aR)-6-(4-oxo-3,4-dihydrophthalazin-1-yl)spiro[3.3]heptan-2-yl)-[1,2,4]triazolo[4,3-a]pyridine-3-carboxamide] and `[H][C@]1(c2n[nH]c(=O)c3ccccc32)C[C@]2(C[C@@H](NC(=O)c3cnc4ccc(C(F)(F)F)cn34)C2)C1` (stereo partly drawn) [Example 390, N-((aR)-6-(4-oxo-3,4-dihydrophthalazin-1-yl)spiro[3.3]heptan-2-yl)-6-(trifluoro-methyl)imidazo[1,2-a]pyridine-3-carboxamide] fall in the same range of IC50: 5.1 to 15 nM for the first, 5.1 to 15 nM for the second.

`[H][C@]1(c2n[nH]c(=O)c3ccccc32)C[C@]2(C[C@@H](NC(=O)c3cnc4cc(N5CCC(F)(F)CC5)ccn34)C2)C1` (stereo partly drawn) [Example 391, 7-(4,4-difluoropiperidin-1-yl)-N-((aR)-6-(4-oxo-3,4-dihydrophthalazin-1-yl)spiro[3.3]heptan-2-yl)imidazo[1,2-a]pyridine-3 carboxamide] and `[H][C@]1(c2n[nH]c(=O)c3ccccc32)C[C@]2(C[C@@H](NC(=O)c3cnc4cc(N5CCC(F)(F)C5)ccn34)C2)C1` (stereo partly drawn) [Example 392, 7-(3,3-difluoropyrrolidin-1-yl)-N-((aR)-6-(4-oxo-3,4-dihydrophthalazin-1-yl)spiro[3.3]heptan-2-yl)imidazo[1,2-a]pyridine-3 carboxamide] fall in the same range of IC50: 0.2 to 2 nM for the first, 0.2 to 2 nM for the second.

`[H][C@]1(c2n[nH]c(=O)c3ccccc32)C[C@@]2(C[C@H](NC(=O)c3cnc4cc(N5CC[C@@H](F)C5)ccn34)C2)C1` (stereo partly drawn) [Example 393, 7-((R)-3-fluoropyrrolidin-1-yl)-N-((aR)-6-(4-oxo-3,4-dihydrophthalazin-1-yl)spiro[3.3]heptan-2-yl)imidazo[1,2-a]pyridine-3-carboxamide] and `[H][C@]1(c2n[nH]c(=O)c3ccccc32)C[C@@]2(C[C@H](NC(=O)c3cnc4cc(N5CC[C@H](F)C5)ccn34)C2)C1` (stereo partly drawn) [Example 394, 7-((S)-3-fluoropyrrolidin-1-yl)-N-((aR)-6-(4-oxo-3,4-dihydrophthalazin-1-yl)spiro[3.3]heptan-2-yl)imidazo[1,2-a]pyridine-3-carboxamide] fall in the same range of IC50: 0.2 to 2 nM for the first, 0.2 to 2 nM for the second.

`[H][C@]1(c2n[nH]c(=O)c3ccccc32)C[C@@]2(C[C@H](NC(=O)c3cnc4cc(N5CC[C@@H](O)C5)ccn34)C2)C1` (stereo partly drawn) [Example 395, 7-((R)-3-hydroxypyrrolidin-1-yl)-N-((aR)-6-(4-oxo-3,4-dihydrophthalazin-1-yl)spiro[3.3]heptan-2-yl)imidazo[1,2-a]pyridine-3-carboxamide] and `[H][C@]1(c2n[nH]c(=O)c3ccccc32)C[C@]2(C[C@@H](NC(=O)c3cnc4cc(N(C)CCO)ccn34)C2)C1` (stereo partly drawn) [Example 396, 7-((2-hydroxy-ethyl)(methyl)amino)-N-((aR)-6-(4-oxo-3,4-dihydrophthalazin-1-yl)spiro[3.3]heptan-2-yl)imidazo[1,2-a]pyridine-3-carboxamide] fall in the same range of IC50: 2.01 to 5 nM for the first, 2.01 to 5 nM for the second.

Compared with `[H][C@]1(c2n[nH]c(=O)c3ccccc32)C[C@]2(C[C@@H](NC(=O)c3cnc4cc(N(C)CCOC)ccn34)C2)C1` (stereo partly drawn) [Example 397, 7-((2-methoxy-ethyl)(methyl)amino)-N-((aR)-6-(4-oxo-3,4-dihydrophthalazin-1-yl)spiro[3.3]heptan-2-yl)imidazo[1,2-a]pyridine-3-carboxamide], `[H][C@]1(c2n[nH]c(=O)c3ccccc32)C[C@]2(C[C@@H](NC(=O)c3cnc4cc(N(C)CC(C)(C)O)ccn34)C2)C1` (stereo partly drawn) [Example 399, 7-((2-hydroxy-2-methyl-propyl)(methyl)amino)-N-((aR)-6-(4-oxo-3,4-dihydrophthalazin-1-yl)spiro[3.3]heptan-2-yl)imidazo[1,2-a]pyridine-3-carboxamide] is higher in IC50: 0.2 to 2 nM for the first, 2.01 to 5 nM for the second.

First: [H][C@]1(c2n[nH]c(=O)c3ccccc32)C[C@]2(C[C@@H](NC(=O)c3cnc4cc(OCCN5CCOCC5)ccn34)C2)C1 (stereo partly drawn) [Example 398, 7-(2-morpholinoethoxy)-N-((aR)-6-(4-oxo-3,4-dihydrophthalazin-1-yl)spiro[3.3]heptan-2-yl)imidazo[1,2-a]pyridine-3-carboxamide]
Second: [H][C@]1(c2n[nH]c(=O)c3ccccc32)C[C@]2(C[C@@H](NC(=O)c3cnc4c(F)cc(C(F)(F)F)cn34)C2)C1 (stereo partly drawn) [Example 404, 8-fluoro-N-((aR)-6-(4-oxo-3,4-dihydrophthalazin-1-yl)spiro[3.3]heptan-2-yl)-6-(trifluoromethyl)imidazo[1,2-a]pyridine-3-carboxamide]
The IC50 of the first is lower: 0.2 to 2 nM for the first, 15.1 to 100 nM for the second.

Molecule `[H][C@]1(c2n[nH]c(=O)c3ccccc32)C[C@]2(C[C@@H](NC(=O)c3cn(CC(C)(C)O)c4cc(=O)ccn34)C2)C1` (stereo partly drawn) [Example 402, 1-(2-hydroxy-2-methylpropyl)-7-oxo-N-((aR)-6-(4-oxo-3,4-dihydrophthalazin-1-yl)spiro[3.3]heptan-2-yl)-1,7-dihydroimidazo[1,2-a]pyridine-3-carboxamide] has an IC50 of 100 to 2100 nM.
